Source: patent publication US10092621B2 (priority 2014, dated 2018)
Marks after values point to notes of the source that are not given here.

Tests used:
[1] = test system: intensive care unit patients with severe septic shock; settings: esmolol group; […] in the control group; cited from earlier work
healthy volunteers [2] = assay: Phase 1 SAD/MAD study: growth hormone levels; assay type: in vivo, human; settings: for GH level spike: 150 μg/kg TID
Method: A randomized, double-blind, placebo-controlled, single and multiple ascending IV dose (SAD and MAD), sequential-group study to assess the safety, tolerability, PK, and PD of ulimorelin in healthy subjects was initiated and conducted as follows.
Levels on Day 1 were meaningfully greater than those seen in placebo subjects at any timepoint (pooled placebo mean GH levels were 3.2 μg/L and ranged from about 0.1 to 11 μg/L). Over time, the spikes in GH levels diminished but remained measureable and within or slightly greater than the expected physiological range of the assay (0-0.8 μg/L for males and 0-8 μg/L for females).

[3] = test system: diabetic gastroparesis patients; settings: cited from earlier work
[4] = test system: patients with post-operative ileus; settings: Phase 2, once daily dosing for up to 7 days; cited from earlier work
healthy volunteers [5] = assay: Phase 1 MAD study: gastric emptying by scintigraphic imaging; assay type: in vivo, human; settings: for Gastric Emptying Day 1 Improvement Over Baseline T25% / Gastric Emptying Day 1 Improvement Over Baseline T50%: single dose Day 1; for acceleration of liquid meal emptying (GET50) vs pre-dosing baseline: TID
Method: Healthy male and female volunteers aged 18 to 55 years participated in the trial. […] The doses studied were SAD: 600, 1200, and 900 μg/kg and MAD: 300, 150, and 80 μg/kg q8H for seven days.

For COC(=O)CCc1ccc(OCC(O)CNC(C)C)cc1 (centres unmarked) [esmolol], the twenty-eight day mortality [1] is given as 49.4%.

For ulimorelin, the “Mean Max GH” value (healthy volunteers [2]; Female, 150 μg/kg, Day 1) was 18.8 μ/L, the “Mean Max GH” value (healthy volunteers [2]; Female, 150 μg/kg, Day 4) was 10.7 μ/L and the “Mean Max GH” value (healthy volunteers [2]; Female, 150 μg/kg, Day 7) was 6.2 μ/L. For the same compound, the “Mean Max GH” value (healthy volunteers [2]; Female, 300 μg/kg, Day 1) was 41.5 μ/L, the “Mean Max GH” value (healthy volunteers [2]; Female, 300 μg/kg, Day 4) was 31.5 μ/L and the “Mean Max GH” value (healthy volunteers [2]; Female, 600 μg/kg, Day 1) was 77.9 μ/L. The “Mean Max GH” value (healthy volunteers [2]; Female, 900 μg/kg, Day 1) was 83.4 μ/L, the “Mean Max GH” value (healthy volunteers [2]; Female, 1200 μg/kg, Day 1) was 76.0 μ/L and the “Mean Max GH” value (healthy volunteers [2]; Male, 150 μg/kg, Day 1) was 11.4 µg/L. For the same compound, the “Mean Max GH” value (healthy volunteers [2]; Male, 150 μg/kg, Day 4) was 2.4 µg/L, the “Mean Max GH” value (healthy volunteers [2]; Male, 150 μg/kg, Day 7) was 1.7 µg/L and the “Mean Max GH” value (healthy volunteers [2]; Male, 300 μg/kg, Day 1) was 18.7 µg/L. The “Mean Max GH” value (healthy volunteers [2]; Male, 300 μg/kg, Day 4) was 4.0 µg/L, the “Mean Max GH” value (healthy volunteers [2]; Male, 300 μg/kg, Day 7) was 3.0 µg/L and the “Mean Max GH” value (healthy volunteers [2]; Male, 600 μg/kg, Day 1) was 41.7 µg/L. The “Mean Max GH” value (healthy volunteers [2]; Male, 900 μg/kg, Day 1) was 79.7 µg/L, the “Mean Max GH” value (healthy volunteers [2]; Male, 1200 μg/kg, Day 1) was 53.0 µg/L and the “Mean Max GH” value (healthy volunteers [2]; Person, 300 μg/kg, Day 7, n = 1) was 11.3* μ/L. The GH level spike (healthy volunteers [2]; females, Day 1) was about 19 µg/L, the GH level spike (healthy volunteers [2]; males, Day 1) was about 11 µg/L and the gastric emptying ([3]; Phase 2, 10 patients with diabetic gastroparesis, 30 min IV infusion once daily) was “accelerated gastric emptying of solid and liquid food”. The GCSI scores ([3]; additional Phase 2 study of diabetic gastroparesis patients) was “improvements in GCSI Loss of Appetite and Vomiting scores”, the “time to first bowel movement (BM)” value [4] was “shortened time to first bowel movement” and the “Gastric Emptying Day 4 Improvement Over Baseline T25%” value (healthy volunteers [5]; 80 μg/kg q8H) was 35%. For the same compound, the “Gastric Emptying Day 4 Improvement Over Baseline T50%” value (healthy volunteers [5]; 80 μg/kg q8H) was 26%, the “Gastric Emptying Day 1 Improvement Over Baseline T25%” value (healthy volunteers [5]; 80 μg/kg) was 30% and the “Gastric Emptying Day 1 Improvement Over Baseline T50%” value (healthy volunteers [5]; 80 μg/kg) was 14%. The “Gastric Emptying Day 4 Improvement Over Baseline T25%” value (healthy volunteers [5]; 150 μg/kg q8H) was 25%, the “Gastric Emptying Day 4 Improvement Over Baseline T50%” value (healthy volunteers [5]; 150 μg/kg q8H) was 23%* and the “Gastric Emptying Day 1 Improvement Over Baseline T25%” value (healthy volunteers [5]; 150 μg/kg) was 45%*. The “Gastric Emptying Day 1 Improvement Over Baseline T50%” value (healthy volunteers [5]; 150 μg/kg) was 34%*, the “Gastric Emptying Day 4 Improvement Over Baseline T25%” value (healthy volunteers [5]; 300 μg/kg q8H) was 31% and the “Gastric Emptying Day 4 Improvement Over Baseline T50%” value (healthy volunteers [5]; 300 μg/kg q8H) was 27%*. The “Gastric Emptying Day 1 Improvement Over Baseline T25%” value (healthy volunteers [5]; 300 μg/kg) was 54%*, the “Gastric Emptying Day 1 Improvement Over Baseline T50%” value (healthy volunteers [5]; 300 μg/kg) was 46%* and the “acceleration of liquid meal emptying (GET50) vs pre-dosing baseline” value (healthy volunteers [5]; Day 1, both treatment groups) was “greater than 30%”. The “acceleration of liquid meal emptying (GET50) vs pre-dosing baseline” value (healthy volunteers [5]; Day 4, both treatment groups) was over 20%.
